Numbers after ± are expanded uncertainties.
Assay: xn = mol fraction of the nth substance listed
Details: Liquid, Vibrating tube method

CN(C)C=O [dimethylformamide] + O=C=O
Details | mass density [kg/m3]
323.1 K, 12012 kPa, x2 = 0.4502 | 948.99 ± 0.41
323.1 K, 12998 kPa, x2 = 0.4068 | 949.23 ± 0.41
323.1 K, 13022 kPa, x2 = 0.4502 | 950.22 ± 0.41
323.1 K, 13979 kPa, x2 = 0.4068 | 950.27 ± 0.41
323.1 K, 14010 kPa, x2 = 0.4502 | 951.35 ± 0.41
323.1 K, 15004 kPa, x2 = 0.4068 | 951.37 ± 0.41
323.1 K, 15007 kPa, x2 = 0.4502 | 952.52 ± 0.41
323.1 K, 16001 kPa, x2 = 0.4068 | 952.41 ± 0.41
323.1 K, 16010 kPa, x2 = 0.4502 | 953.67 ± 0.41
323.1 K, 16989 kPa, x2 = 0.4068 | 953.45 ± 0.41
323.1 K, 17008 kPa, x2 = 0.4502 | 954.76 ± 0.41
323.1 K, 18013 kPa, x2 = 0.4502 | 955.9 ± 0.41
323.1 K, 18017 kPa, x2 = 0.4068 | 954.51 ± 0.41
323.1 K, 18998 kPa, x2 = 0.4068 | 955.51 ± 0.41
323.1 K, 19001 kPa, x2 = 0.4502 | 956.99 ± 0.41
323.1 K, 19996 kPa, x2 = 0.4502 | 958.07 ± 0.41
323.1 K, 20005 kPa, x2 = 0.4068 | 956.52 ± 0.41
323.1 K, 20986 kPa, x2 = 0.4068 | 957.5 ± 0.41
323.1 K, 21010 kPa, x2 = 0.4502 | 959.2 ± 0.41
323.1 K, 22004 kPa, x2 = 0.4502 | 960.27 ± 0.41
323.1 K, 22021 kPa, x2 = 0.4068 | 958.56 ± 0.41
323.1 K, 22997 kPa, x2 = 0.4502 | 961.32 ± 0.41
323.1 K, 22998 kPa, x2 = 0.4068 | 959.49 ± 0.41
323.1 K, 23987 kPa, x2 = 0.4068 | 960.47 ± 0.41
323.1 K, 23995 kPa, x2 = 0.4502 | 962.39 ± 0.41
323.1 K, 25019 kPa, x2 = 0.4502 | 963.43 ± 0.41
323.1 K, 25057 kPa, x2 = 0.4068 | 961.5 ± 0.41
323.15 K, 5022 kPa, x2 = 0.2876 | 937.32 ± 0.41
323.15 K, 6019 kPa, x2 = 0.2876 | 938.29 ± 0.41
323.15 K, 7007 kPa, x2 = 0.2876 | 939.23 ± 0.41
323.15 K, 8008 kPa, x2 = 0.2876 | 940.16 ± 0.41
323.15 K, 9023 kPa, x2 = 0.2876 | 941.14 ± 0.41
323.15 K, 10001 kPa, x2 = 0.2876 | 942.04 ± 0.41
323.15 K, 11006 kPa, x2 = 0.2876 | 942.98 ± 0.41
323.15 K, 12003 kPa, x2 = 0.2876 | 943.9 ± 0.41
323.15 K, 13004 kPa, x2 = 0.2876 | 944.81 ± 0.41
323.15 K, 14005 kPa, x2 = 0.2876 | 945.73 ± 0.41
323.15 K, 14999 kPa, x2 = 0.2876 | 946.61 ± 0.41
323.15 K, 15994 kPa, x2 = 0.2876 | 947.48 ± 0.41
323.15 K, 17022 kPa, x2 = 0.2876 | 948.41 ± 0.41
323.15 K, 17996 kPa, x2 = 0.2876 | 949.25 ± 0.41
323.15 K, 19004 kPa, x2 = 0.2876 | 950.13 ± 0.41
323.15 K, 20021 kPa, x2 = 0.2876 | 950.99 ± 0.41
323.15 K, 21018 kPa, x2 = 0.2876 | 951.84 ± 0.41
323.15 K, 22030 kPa, x2 = 0.2876 | 952.68 ± 0.41
323.15 K, 23007 kPa, x2 = 0.2876 | 953.51 ± 0.41
323.15 K, 24019 kPa, x2 = 0.2876 | 954.35 ± 0.41
323.15 K, 25012 kPa, x2 = 0.2876 | 955.16 ± 0.41
332.96 K, 10005 kPa, x2 = 0.6235 | 907.82 ± 0.42
332.96 K, 10991 kPa, x2 = 0.6235 | 910.93 ± 0.42
332.96 K, 12056 kPa, x2 = 0.6235 | 913.98 ± 0.42
332.96 K, 13000 kPa, x2 = 0.6235 | 916.59 ± 0.42
332.96 K, 14042 kPa, x2 = 0.6235 | 919.37 ± 0.42
332.96 K, 15010 kPa, x2 = 0.6235 | 921.91 ± 0.42
332.96 K, 15997 kPa, x2 = 0.6235 | 924.4 ± 0.42
332.96 K, 17030 kPa, x2 = 0.6235 | 926.91 ± 0.42
332.96 K, 18038 kPa, x2 = 0.6235 | 929.31 ± 0.42
332.96 K, 19028 kPa, x2 = 0.6235 | 931.63 ± 0.42
332.96 K, 20027 kPa, x2 = 0.6235 | 933.85 ± 0.42
332.96 K, 21009 kPa, x2 = 0.6235 | 936.05 ± 0.42
332.96 K, 22009 kPa, x2 = 0.6235 | 938.17 ± 0.42
332.96 K, 23042 kPa, x2 = 0.6235 | 940.35 ± 0.42
332.96 K, 24041 kPa, x2 = 0.6235 | 942.44 ± 0.42
332.96 K, 25008 kPa, x2 = 0.6235 | 944.38 ± 0.42
332.97 K, 13046 kPa, x2 = 0.8091 | 858.28 ± 0.75
332.97 K, 14016 kPa, x2 = 0.8091 | 863.75 ± 0.45
332.97 K, 15002 kPa, x2 = 0.8091 | 869.06 ± 0.45
332.97 K, 16027 kPa, x2 = 0.8091 | 874.28 ± 0.44
332.97 K, 17017 kPa, x2 = 0.8091 | 879.06 ± 0.44
332.97 K, 18042 kPa, x2 = 0.8091 | 883.74 ± 0.44
332.97 K, 19003 kPa, x2 = 0.8091 | 887.97 ± 0.44
332.97 K, 20021 kPa, x2 = 0.8091 | 892.23 ± 0.44
332.97 K, 21029 kPa, x2 = 0.8091 | 896.31 ± 0.44
332.97 K, 22019 kPa, x2 = 0.8091 | 900.16 ± 0.44
332.97 K, 23004 kPa, x2 = 0.8091 | 903.83 ± 0.43
332.97 K, 24041 kPa, x2 = 0.8091 | 907.6 ± 0.43
332.97 K, 24998 kPa, x2 = 0.8091 | 910.97 ± 0.43
332.98 K, 8015 kPa, x2 = 0.4268 | 929.54 ± 0.41
332.98 K, 9023 kPa, x2 = 0.4268 | 930.86 ± 0.41
332.98 K, 9996 kPa, x2 = 0.4268 | 932.09 ± 0.41
332.98 K, 11004 kPa, x2 = 0.4268 | 933.37 ± 0.41
332.98 K, 12004 kPa, x2 = 0.4268 | 934.65 ± 0.41
332.98 K, 13005 kPa, x2 = 0.4268 | 935.88 ± 0.41
332.98 K, 13019 kPa, x2 = 0.9311 | 744.38 ± 0.56
